# Where “and” joins values, the source holds several entries; their conditions need not be identical. Equal values may be shown once.
# Assays:
# Assay in all cases: biochemical
# Assay type in all cases: binding
# SfurOBP2 = SfurOBP2 (Sogatella furcifera, UniProt V5T759)
# Protocol: (§1) Thirty-six rice odorants ([He et al., 2014]; [Wang et al., 2017]) and 1-N-phenyl-naphthylamine (1-NPN) were purchased from Sigma-Aldrich (St Louis, MO, USA). These odorants and 1-NPN were dissolved in high-performance liquid chromatography (HPLC) purify grade methanol for 1.0 mM as work solution.
# (§2) Fluorescence competitive binding assays were performed on Tecan Spark 10M (Tecan Group Ltd., Männedorf, Switzerland) with the F96 Black ELIAS Plate (Sangon) ([Khuhro et al., 2017]; [Liu et al., 2017]). The solutions were excited at 337 nm and emission spectra were recorded between 390 and 490 nm. First, to test the binding constants of 1-NPN to the SfurOBPs, a 2.0 µM solution of protein in 50 mM Tris-HCl (pH = 7.4) was titrated with 1 mM 1-NPN to achieve virous concentrations. Next, the competitive binding of each odorant was measured using the 1-NPN as fluorescent reporter and odorant as competitor. The concentrations of protein and 1-NPN were both 2.0 µM, the odorant added after protein and 1-NPN added into the well of ELIAS Plate for 2 min. The final concentrations of each competitor were 2, 4, 6, 8, 10, 12, 14, 16, 18 and 20 µM. After 2 min of odorant added, the fluorescence intensity was measured and recorded. The volume of mixed solution in each well was maintained at 250 µL. Each interaction was performed in triplicates.
# (§3) GraphPad Prism 7.0 software (GraphPad Software, Inc., La Jolla, CA, USA) was used to calculated and generated the binding constants (K1−NPN) of 1-NPN to SfurOBPs and relative Scatchard plots ([Ban et al., 2003]; [Li et al., 2016]). Dissociation constant (Ki) of each odorant to SfurOBP was computed from the corresponding IC50 value (the half maximal inhibitory concentration), using the following equation: Ki=[IC50]/(1 + [1-NPN]/K1−NPN), where [1-NPN] is the free concentration of 1-NPN and K1−NPN is the dissociation constant of the complex protein/1-NPN.
# SfurOBP3 = SfurOBP3 (Sogatella furcifera, UniProt V5T818); conditions: for Fluorescence competitive binding assay, fluorescence intensity: OBP3, three replicate columns
# Chain of SfurOBP3 (V5T818 entry or part of it): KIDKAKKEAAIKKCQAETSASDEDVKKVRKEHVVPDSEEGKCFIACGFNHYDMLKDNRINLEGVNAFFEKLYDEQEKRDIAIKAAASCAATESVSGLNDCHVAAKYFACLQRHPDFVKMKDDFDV
# Protocol: as §1, §2, §3
# SfurOBP1 = SfurOBP1 (Sogatella furcifera, UniProt V5T8N5); conditions: for Fluorescence competitive binding assay, fluorescence intensity: OBP1, three replicate columns
# Chain of SfurOBP1 (V5T8N5 entry or part of it): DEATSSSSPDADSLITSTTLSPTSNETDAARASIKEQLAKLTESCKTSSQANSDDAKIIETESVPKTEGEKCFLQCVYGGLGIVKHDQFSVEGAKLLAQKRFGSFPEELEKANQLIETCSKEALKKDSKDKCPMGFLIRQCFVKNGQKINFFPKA
# Protocol: as §1, §2, §3
# SfurOBP11 = SfurOBP11 (Sogatella furcifera, UniProt V5T6E3)
# Chain of SfurOBP11 (V5T6E3 entry or part of it): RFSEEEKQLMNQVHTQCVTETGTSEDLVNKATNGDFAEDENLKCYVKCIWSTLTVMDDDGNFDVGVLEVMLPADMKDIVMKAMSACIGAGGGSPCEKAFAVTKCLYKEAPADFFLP
# Protocol: as §1, §2, §3
# Chain of SfurOBP2 (V5T759 entry or part of it): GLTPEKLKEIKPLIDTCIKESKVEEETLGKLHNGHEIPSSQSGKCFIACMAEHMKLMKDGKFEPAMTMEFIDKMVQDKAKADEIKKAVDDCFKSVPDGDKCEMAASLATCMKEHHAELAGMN
structure (smiles),measurement,setting,value
O=C(c1ccccc1)c1ccccc1 [benzophenone],IC50,SfurOBP2,> 20 µM
same,"Fluorescence competitive binding assay, OBP2 (raw fluorescence reading)","SfurOBP2; ligand concentration 2 (unit not given), replicate column 1 of 3",16222
same,"Fluorescence competitive binding assay, OBP2 (raw fluorescence reading)","SfurOBP2; ligand concentration 2 (unit not given), replicate column 2 of 3",16950
same,"Fluorescence competitive binding assay, OBP2 (raw fluorescence reading)","SfurOBP2; ligand concentration 2 (unit not given), replicate column 3 of 3",16565
same,"Fluorescence competitive binding assay, OBP2 (raw fluorescence reading)","SfurOBP2; ligand concentration 4 (unit not given), replicate column 1 of 3",15645
same,"Fluorescence competitive binding assay, OBP2 (raw fluorescence reading)","SfurOBP2; ligand concentration 4 (unit not given), replicate column 2 of 3",17125
same,"Fluorescence competitive binding assay, OBP2 (raw fluorescence reading)","SfurOBP2; ligand concentration 4 (unit not given), replicate column 3 of 3",16794
same,"Fluorescence competitive binding assay, OBP2 (raw fluorescence reading)","SfurOBP2; ligand concentration 6 (unit not given), replicate column 1 of 3",16160
same,"Fluorescence competitive binding assay, OBP2 (raw fluorescence reading)","SfurOBP2; ligand concentration 6 (unit not given), replicate column 2 of 3",16241
same,"Fluorescence competitive binding assay, OBP2 (raw fluorescence reading)","SfurOBP2; ligand concentration 6 (unit not given), replicate column 3 of 3",16073
same,"Fluorescence competitive binding assay, OBP2 (raw fluorescence reading)","SfurOBP2; ligand concentration 8 (unit not given), replicate column 1 of 3",14263
same,"Fluorescence competitive binding assay, OBP2 (raw fluorescence reading)","SfurOBP2; ligand concentration 8 (unit not given), replicate column 2 of 3",14653
same,"Fluorescence competitive binding assay, OBP2 (raw fluorescence reading)","SfurOBP2; ligand concentration 8 (unit not given), replicate column 3 of 3",15131
same,"Fluorescence competitive binding assay, OBP2 (raw fluorescence reading)","SfurOBP2; ligand concentration 10 (unit not given), replicate column 1 of 3",13747
same,"Fluorescence competitive binding assay, OBP2 (raw fluorescence reading)","SfurOBP2; ligand concentration 10 (unit not given), replicate column 2 of 3",14449
same,"Fluorescence competitive binding assay, OBP2 (raw fluorescence reading)","SfurOBP2; ligand concentration 10 (unit not given), replicate column 3 of 3",15134
same,"Fluorescence competitive binding assay, OBP2 (raw fluorescence reading)","SfurOBP2; ligand concentration 12 (unit not given), replicate column 1 of 3",12905
same,"Fluorescence competitive binding assay, OBP2 (raw fluorescence reading)","SfurOBP2; ligand concentration 12 (unit not given), replicate column 2 of 3",13209
same,"Fluorescence competitive binding assay, OBP2 (raw fluorescence reading)","SfurOBP2; ligand concentration 12 (unit not given), replicate column 3 of 3",14417
same,"Fluorescence competitive binding assay, OBP2 (raw fluorescence reading)","SfurOBP2; ligand concentration 14 (unit not given), replicate column 1 of 3",11252
same,"Fluorescence competitive binding assay, OBP2 (raw fluorescence reading)","SfurOBP2; ligand concentration 14 (unit not given), replicate column 2 of 3",12436
same,"Fluorescence competitive binding assay, OBP2 (raw fluorescence reading)","SfurOBP2; ligand concentration 14 (unit not given), replicate column 3 of 3",12979
same,"Fluorescence competitive binding assay, OBP2 (raw fluorescence reading)","SfurOBP2; ligand concentration 16 (unit not given), replicate column 1 of 3",11787
same,"Fluorescence competitive binding assay, OBP2 (raw fluorescence reading)","SfurOBP2; ligand concentration 16 (unit not given), replicate column 2 of 3",11767
same,"Fluorescence competitive binding assay, OBP2 (raw fluorescence reading)","SfurOBP2; ligand concentration 16 (unit not given), replicate column 3 of 3",11673
same,"Fluorescence competitive binding assay, OBP2 (raw fluorescence reading)","SfurOBP2; ligand concentration 18 (unit not given), replicate column 1 of 3",12436
same,"Fluorescence competitive binding assay, OBP2 (raw fluorescence reading)","SfurOBP2; ligand concentration 18 (unit not given), replicate column 2 of 3",11331
same,"Fluorescence competitive binding assay, OBP2 (raw fluorescence reading)","SfurOBP2; ligand concentration 18 (unit not given), replicate column 3 of 3",11969
same,"Fluorescence competitive binding assay, OBP2 (raw fluorescence reading)","SfurOBP2; ligand concentration 20 (unit not given), replicate column 1 of 3",11423
same,"Fluorescence competitive binding assay, OBP2 (raw fluorescence reading)","SfurOBP2; ligand concentration 20 (unit not given), replicate column 2 of 3",12242
same,"Fluorescence competitive binding assay, OBP2 (raw fluorescence reading)","SfurOBP2; ligand concentration 20 (unit not given), replicate column 3 of 3",11724
same,IC50,SfurOBP3,> 20 µM
same,"Fluorescence competitive binding assay, fluorescence intensity",SfurOBP3; ligand concentration 2,66323 and 67865 and 69406
same,"Fluorescence competitive binding assay, fluorescence intensity",SfurOBP3; ligand concentration 4,72270 and 71733 and 72815
same,"Fluorescence competitive binding assay, fluorescence intensity",SfurOBP3; ligand concentration 6,57537 and 56825 and 55208
same,"Fluorescence competitive binding assay, fluorescence intensity",SfurOBP3; ligand concentration 8,58199 and 53071 and 55635
same,"Fluorescence competitive binding assay, fluorescence intensity",SfurOBP3; ligand concentration 10,54477 and 51518 and 50551
same,"Fluorescence competitive binding assay, fluorescence intensity",SfurOBP3; ligand concentration 12,55084 and 52185 and 53632
same,"Fluorescence competitive binding assay, fluorescence intensity",SfurOBP3; ligand concentration 14,52805 and 53281 and 53058
same,"Fluorescence competitive binding assay, fluorescence intensity",SfurOBP3; ligand concentration 16,41260 and 41464 and 41332
same,"Fluorescence competitive binding assay, fluorescence intensity",SfurOBP3; ligand concentration 18,39853 and 41331 and 40577
same,"Fluorescence competitive binding assay, fluorescence intensity",SfurOBP3; ligand concentration 20,39610 and 40773 and 38426
same,IC50,SfurOBP1,> 20 µM
same,"Fluorescence competitive binding assay, fluorescence intensity",SfurOBP1; ligand concentration 2 (μM),4924 and 4810 and 4695
same,"Fluorescence competitive binding assay, fluorescence intensity",SfurOBP1; ligand concentration 4 (μM),5262 and 5281 and 5299
same,"Fluorescence competitive binding assay, fluorescence intensity",SfurOBP1; ligand concentration 6 (μM),5268 and 5717 and 5292
same,"Fluorescence competitive binding assay, fluorescence intensity",SfurOBP1; ligand concentration 8 (μM),5360 and 5130 and 5580
same,"Fluorescence competitive binding assay, fluorescence intensity",SfurOBP1; ligand concentration 10 (μM),5344 and 5432 and 5519
same,"Fluorescence competitive binding assay, fluorescence intensity",SfurOBP1; ligand concentration 12 (μM),5178 and 5515 and 5347
same,"Fluorescence competitive binding assay, fluorescence intensity",SfurOBP1; ligand concentration 14 (μM),5173 and 5557 and 5365
same,"Fluorescence competitive binding assay, fluorescence intensity",SfurOBP1; ligand concentration 16 (μM),5828 and 4931 and 5380
same,"Fluorescence competitive binding assay, fluorescence intensity",SfurOBP1; ligand concentration 18 (μM),5476 and 5297 and 5257
same,"Fluorescence competitive binding assay, fluorescence intensity",SfurOBP1; ligand concentration 20 (μM),5039 and 5512 and 5595
same,IC50,SfurOBP11,16.3 µM
same,"Fluorescence intensity, fluorescence competitive binding assay, OBP11","SfurOBP11; ligand concentration 2, replicate 1",21450
same,"Fluorescence intensity, fluorescence competitive binding assay, OBP11","SfurOBP11; ligand concentration 2, replicate 2",21005
same,"Fluorescence intensity, fluorescence competitive binding assay, OBP11","SfurOBP11; ligand concentration 2, replicate 3",21027
same,"Fluorescence intensity, fluorescence competitive binding assay, OBP11","SfurOBP11; ligand concentration 4, replicate 1",20588
same,"Fluorescence intensity, fluorescence competitive binding assay, OBP11","SfurOBP11; ligand concentration 4, replicate 2",20654
same,"Fluorescence intensity, fluorescence competitive binding assay, OBP11","SfurOBP11; ligand concentration 4, replicate 3",20719
same,"Fluorescence intensity, fluorescence competitive binding assay, OBP11","SfurOBP11; ligand concentration 6, replicate 1",19889
same,"Fluorescence intensity, fluorescence competitive binding assay, OBP11","SfurOBP11; ligand concentration 6, replicate 2",20401
same,"Fluorescence intensity, fluorescence competitive binding assay, OBP11","SfurOBP11; ligand concentration 6, replicate 3",19317
same,"Fluorescence intensity, fluorescence competitive binding assay, OBP11","SfurOBP11; ligand concentration 8, replicate 1",19997
same,"Fluorescence intensity, fluorescence competitive binding assay, OBP11","SfurOBP11; ligand concentration 8, replicate 2",20308
same,"Fluorescence intensity, fluorescence competitive binding assay, OBP11","SfurOBP11; ligand concentration 8, replicate 3",18308
same,"Fluorescence intensity, fluorescence competitive binding assay, OBP11","SfurOBP11; ligand concentration 10, replicate 1",18532
same,"Fluorescence intensity, fluorescence competitive binding assay, OBP11","SfurOBP11; ligand concentration 10, replicate 2",18946
same,"Fluorescence intensity, fluorescence competitive binding assay, OBP11","SfurOBP11; ligand concentration 10, replicate 3",17435
same,"Fluorescence intensity, fluorescence competitive binding assay, OBP11","SfurOBP11; ligand concentration 12, replicate 1",17719
same,"Fluorescence intensity, fluorescence competitive binding assay, OBP11","SfurOBP11; ligand concentration 12, replicate 2",18881
same,"Fluorescence intensity, fluorescence competitive binding assay, OBP11","SfurOBP11; ligand concentration 12, replicate 3",17057
same,"Fluorescence intensity, fluorescence competitive binding assay, OBP11","SfurOBP11; ligand concentration 14, replicate 1",16744
same,"Fluorescence intensity, fluorescence competitive binding assay, OBP11","SfurOBP11; ligand concentration 14, replicate 2",17392
same,"Fluorescence intensity, fluorescence competitive binding assay, OBP11","SfurOBP11; ligand concentration 14, replicate 3",16199
same,"Fluorescence intensity, fluorescence competitive binding assay, OBP11","SfurOBP11; ligand concentration 16, replicate 1",16069
same,"Fluorescence intensity, fluorescence competitive binding assay, OBP11","SfurOBP11; ligand concentration 16, replicate 2",15955
same,"Fluorescence intensity, fluorescence competitive binding assay, OBP11","SfurOBP11; ligand concentration 16, replicate 3",16012
same,"Fluorescence intensity, fluorescence competitive binding assay, OBP11","SfurOBP11; ligand concentration 18, replicate 1",16341
same,"Fluorescence intensity, fluorescence competitive binding assay, OBP11","SfurOBP11; ligand concentration 18, replicate 2",15453
same,"Fluorescence intensity, fluorescence competitive binding assay, OBP11","SfurOBP11; ligand concentration 18, replicate 3",16084
same,"Fluorescence intensity, fluorescence competitive binding assay, OBP11","SfurOBP11; ligand concentration 20, replicate 1",15275
same,"Fluorescence intensity, fluorescence competitive binding assay, OBP11","SfurOBP11; ligand concentration 20, replicate 2",14432
same,"Fluorescence intensity, fluorescence competitive binding assay, OBP11","SfurOBP11; ligand concentration 20, replicate 3",14489

# From PMC6409085, “Three odorant-binding proteins are involved in the behavioral response of Sogatella furcifera to rice plant volatiles” (PeerJ, 2019)
